# Assay results published in ChEMBL document CHEMBL1135357, “Anti-MRSA activity of alkyl gallates” (2002).
# Tests used:
# Format in all cases: functional
# Staphylococcus aureus [1] = assay: Compound was tested for antibacterial activity against MRSA ATCC 33591, expressed as minimum bactericidal concentration (MBC)
# Staphylococcus aureus [2] = assay: Compound was tested for antibacterial activity against MRSA ATCC 33591, expressed as minimum inhibitory concentration (MIC)
# Streptococcus mutans = assay: Compound was tested for antibacterial activity against Streptococcus mutans
# Cutibacterium acnes = assay: Compound was tested for antibacterial activity against Propionibacterium acnes
# Micrococcus luteus = assay: Compound was tested for antibacterial activity against Micrococcus luteus
# Staphylococcus aureus [3] = assay: Compound was tested for antibacterial activity against MRSA ATCC 33591, expressed as aminimum inhibitory concentration (MIC)
# Bacillus subtilis = assay: Compound was tested for antibacterial activity against Bacillus subtilis
# Staphylococcus aureus [4] = assay: Compound was tested for antibacterial activity against Staphylococcus aureus (MRSA)
# Bacillus thuringiensis = assay: Compound was tested for antibacterial activity against Bacillus thuringiensis
# [5] = tested on: Corynebacterium ammoniagenes; assay: Compound was tested for antibacterial activity against Brevibacterium ammoniagenes
# Staphylococcus aureus [6] = assay: Compound was tested for antibacterial activity against Staphylococcus aureus
SMILES,MIC (Staphylococcus aureus [2]) [µg/mL],MBC (Staphylococcus aureus [1]) [µg/mL],other results
CCCCCCCCCCCOC(=O)c1cc(O)cc(O)c1,50,50,
COc1cccc(OC)c1C(=O)N[C@@H]1C(=O)N2[C@@H]1SC(C)(C)[C@@H]2C(=O)O [METHICILLIN],800,> 800,
CCCCCCCCOC(=O)c1cc(O)c(O)c(O)c1 [OCTYL_GALLATE],25,50,
CCCCCCCCCOC(=O)c1cc(O)c(O)c(O)c1 [NONYL GALLATE],25,50,
CCCCCCCCCCCCOC(=O)c1cc(O)c(O)c(O)c1 [DODECYL GALLATE],,25,MBC (Streptococcus mutans): 100 µg/mL; MIC (Streptococcus mutans): 100 µg/mL; MBC (Cutibacterium acnes): 6.25 µg/mL; MIC (Cutibacterium acnes): 6.25 µg/mL; MBC (Micrococcus luteus): 25 µg/mL; MIC (Micrococcus luteus): 12.5 µg/mL; MIC (Staphylococcus aureus [3]): 12.5 µg/mL; MBC (Bacillus subtilis): 25 µg/mL; MIC (Bacillus subtilis): 25 µg/mL; MBC (Staphylococcus aureus [4]): 25 µg/mL; MIC (Staphylococcus aureus [4]): 12.5 µg/mL; MIC (Bacillus thuringiensis): 50 µg/mL; MBC [5]: 25 µg/mL; MIC [5]: 25 µg/mL; MBC (Staphylococcus aureus [6]): 25 µg/mL; MIC (Staphylococcus aureus [6]): 12.5 µg/mL
CCCCCCCCCCCOC(=O)c1cccc(O)c1,50,50,
CCCCCCCCCCCOC(=O)c1cc(O)c(O)c(O)c1 [UNDECYL GALLATE],12.5,25,

# Continued by falling MIC (Staphylococcus aureus [2]), values first:
MIC (Staphylococcus aureus [2]) [µg/mL],SMILES,MBC (Staphylococcus aureus [1]) [µg/mL],other results
1600,CCCOC(=O)c1cc(O)c(O)c(O)c1 [PROPYL GALLATE],3200,
50,CCCCCCOC(=O)c1cc(O)c(O)c(O)c1 [HEXYL GALLATE],200,
25,CCCCCCCOC(=O)c1cc(O)c(O)c(O)c1 [HEPTYL GALLATE],100,
12.5,CCCCCCCCCCOC(=O)c1cc(O)c(O)c(O)c1 [DECYL GALLATE],25,
